Patent US20230226005A1, “Methods of Treating, Ameliorating, Shortening Duration, and/or Reversing Symptoms and/or Complications of a Coronavirus Infection” (Yale University, priority 2020, published 2023)

Columns and labels:
[1] = tested on: COVID-19 infection; test: Phase IIa study: chest/respiratory-family symptom score; format: in vivo
[2] = tested on: COVID-19 infection; test: Phase IIa study: smell/taste-family symptom score; format: in vivo; conditions: for smell/taste-family symptoms, Fitzmaurice mixed effects model, Effect: Camostat vs Placebo
[3] = tested on: COVID-19; conditions: hospitalized COVID-19 patients; 200 mg po three times daily for 5 days; cited from earlier work
[4] = tested on: COVID-19 infection; test: Phase IIa study: throat-family symptom score; format: in vivo

Question: Which “chest/respiratory-family symptom score, Fitzmaurice model, Camostat” value ([1]; day 0) does the source give for CN(C)C(=O)COC(=O)Cc1ccc(OC(=O)c2ccc(NC(=N)N)cc2)cc1 [camostat, 4-[[4-[(Aminoiminomethyl)amino]benzoyl]oxy]benzeneacetic acid 2-(dimethylamino)-2-oxoethyl ester] here?
Answer: 7.5 (0.7)

Question: And the “chest/respiratory-family symptom score, Fitzmaurice model, Camostat” value ([1]; day 1)?
Answer: 7.7 (0.8)

Question: And the “chest/respiratory-family symptom score, Fitzmaurice model, Effect (placebo vs camostat)” value ([1]; day 1)?
Answer: −0.1 (0.9)

Question: And the “chest/respiratory-family symptom score, Fitzmaurice model, Camostat” value ([1]; day 2)?
Answer: 7.6 (0.8)

Question: What about the “chest/respiratory-family symptom score, Fitzmaurice model, Effect (placebo vs camostat)” value ([1]; day 2) of the same molecule?
Answer: −0.5 (0.9)

Question: And the “chest/respiratory-family symptom score, Fitzmaurice model, Camostat” value ([1]; day 3)?
Answer: 7.5 (0.8)

Question: What about the “chest/respiratory-family symptom score, Fitzmaurice model, Effect (placebo vs camostat)” value ([1]; day 3) of the same molecule?
Answer: −0.4 (0.9)

Question: And the “chest/respiratory-family symptom score, Fitzmaurice model, Camostat” value ([1]; day 4)?
Answer: 8 (0.8)

Question: And the “chest/respiratory-family symptom score, Fitzmaurice model, Effect (placebo vs camostat)” value ([1]; day 4)?
Answer: −1.7 (0.9)

Question: What about the “chest/respiratory-family symptom score, Fitzmaurice model, Camostat” value ([1]; day 5) of the same molecule?
Answer: 7 (0.8)

Question: What about the “chest/respiratory-family symptom score, Fitzmaurice model, Effect (placebo vs camostat)” value ([1]; day 5) of the same molecule?
Answer: −0.8 (0.9)

Question: What about the “chest/respiratory-family symptom score, Fitzmaurice model, Camostat” value ([1]; day 6) of the same molecule?
Answer: 6.6 (0.8)

Question: What about the “chest/respiratory-family symptom score, Fitzmaurice model, Effect (placebo vs camostat)” value ([1]; day 6) of the same molecule?
Answer: −0.7 (0.9)

Question: And the “chest/respiratory-family symptom score, Fitzmaurice model, Camostat” value ([1]; day 7)?
Answer: 6.2 (0.8)

Question: What about the “chest/respiratory-family symptom score, Fitzmaurice model, Effect (placebo vs camostat)” value ([1]; day 7) of the same molecule?
Answer: −0.7 (0.9)

Question: What about the “chest/respiratory-family symptom score, Fitzmaurice model, Camostat” value ([1]; day 8) of the same molecule?
Answer: 5.7 (0.8)

Question: And the “chest/respiratory-family symptom score, Fitzmaurice model, Effect (placebo vs camostat)” value ([1]; day 8)?
Answer: −1.4 (0.9)

Question: And the “chest/respiratory-family symptom score, Fitzmaurice model, Camostat” value ([1]; day 9)?
Answer: 5.4 (0.8)

Question: And the “chest/respiratory-family symptom score, Fitzmaurice model, Effect (placebo vs camostat)” value ([1]; day 9)?
Answer: −1.2 (0.9)

Question: And the “chest/respiratory-family symptom score, Fitzmaurice model, Camostat” value ([1]; day 10)?
Answer: 4.9 (0.8)

Question: What about the “chest/respiratory-family symptom score, Fitzmaurice model, Effect (placebo vs camostat)” value ([1]; day 10) of the same molecule?
Answer: −1 (0.9)

Question: And the “chest/respiratory-family symptom score, Fitzmaurice model, Camostat” value ([1]; day 11)?
Answer: 4.2 (0.8)

Question: And the “chest/respiratory-family symptom score, Fitzmaurice model, Effect (placebo vs camostat)” value ([1]; day 11)?
Answer: −0.5 (0.9)

Question: And the “chest/respiratory-family symptom score, Fitzmaurice model, Camostat” value ([1]; day 12)?
Answer: 4 (0.8)

Question: And the “chest/respiratory-family symptom score, Fitzmaurice model, Effect (placebo vs camostat)” value ([1]; day 12)?
Answer: −1 (0.9)

Question: And the “chest/respiratory-family symptom score, Fitzmaurice model, Camostat” value ([1]; day 13)?
Answer: 3.9 (0.9)

Question: And the “chest/respiratory-family symptom score, Fitzmaurice model, Effect (placebo vs camostat)” value ([1]; day 13)?
Answer: −1.1 (0.9)

Question: And the “chest/respiratory-family symptom score, Fitzmaurice model, Camostat” value ([1]; day 14)?
Answer: 3.5 (0.9)

Question: And the “chest/respiratory-family symptom score, Fitzmaurice model, Effect (placebo vs camostat)” value ([1]; day 14)?
Answer: −0.8 (0.9)

Question: What about the “smell/taste-family symptoms, Fitzmaurice mixed effects model, Camostat” value (shortened to “smell/taste-family symptoms … Camostat”) ([2]; Day 0) of the same molecule?
Answer: 1.4 (0.2)

Question: What about the “smell/taste-family symptoms … Camostat” value ([2]; Day 1) of the same molecule?
Answer: 1.4 (0.2)

Question: What about the “smell/taste-family symptoms, Fitzmaurice mixed effects model, Effect” value ([2]; Day 1) of the same molecule?
Answer: 0.5 (0.3)

Question: What about the “smell/taste-family symptoms … Camostat” value ([2]; Day 2) of the same molecule?
Answer: 1.4 (0.2)

Question: And the “smell/taste-family symptoms, Fitzmaurice mixed effects model, Effect” value ([2]; Day 2)?
Answer: 0.7 (0.3)

Question: And the “smell/taste-family symptoms … Camostat” value ([2]; Day 3)?
Answer: 1.3 (0.2)

Question: And the “smell/taste-family symptoms, Fitzmaurice mixed effects model, Effect” value ([2]; Day 3)?
Answer: 1 (0.3)

Question: What about the “smell/taste-family symptoms … Camostat” value ([2]; Day 4) of the same molecule?
Answer: 1.2 (0.2)

Question: And the “smell/taste-family symptoms, Fitzmaurice mixed effects model, Effect” value ([2]; Day 4)?
Answer: 1 (0.3)

Question: And the “smell/taste-family symptoms … Camostat” value ([2]; Day 5)?
Answer: 1.1 (0.2)

Question: What about the “smell/taste-family symptoms, Fitzmaurice mixed effects model, Effect” value ([2]; Day 5) of the same molecule?
Answer: 1.2 (0.3)

Question: What about the “smell/taste-family symptoms … Camostat” value ([2]; Day 6) of the same molecule?
Answer: 1 (0.2)

Question: And the “smell/taste-family symptoms, Fitzmaurice mixed effects model, Effect” value ([2]; Day 6)?
Answer: 0.7 (0.3)

Question: What about the “smell/taste-family symptoms … Camostat” value ([2]; Day 7) of the same molecule?
Answer: 0.8 (0.2)

Question: And the “smell/taste-family symptoms, Fitzmaurice mixed effects model, Effect” value ([2]; Day 7)?
Answer: 0.7 (0.3)

Question: What about the “smell/taste-family symptoms … Camostat” value ([2]; Day 8) of the same molecule?
Answer: 0.8 (0.2)

Question: And the “smell/taste-family symptoms, Fitzmaurice mixed effects model, Effect” value ([2]; Day 8)?
Answer: 0.8 (0.3)

Question: What about the “smell/taste-family symptoms … Camostat” value ([2]; Day 9) of the same molecule?
Answer: 0.9 (0.2)

Question: And the “smell/taste-family symptoms, Fitzmaurice mixed effects model, Effect” value ([2]; Day 9)?
Answer: 0.6 (0.3)

Question: What about the “smell/taste-family symptoms … Camostat” value ([2]; Day 10) of the same molecule?
Answer: 0.9 (0.2)

Question: What about the “smell/taste-family symptoms, Fitzmaurice mixed effects model, Effect” value ([2]; Day 10) of the same molecule?
Answer: 0.5 (0.3)

Question: And the “smell/taste-family symptoms … Camostat” value ([2]; Day 11)?
Answer: 0.9 (0.2)

Question: And the “smell/taste-family symptoms, Fitzmaurice mixed effects model, Effect” value ([2]; Day 11)?
Answer: 0.3 (0.3)

Question: What about the “smell/taste-family symptoms … Camostat” value ([2]; Day 12) of the same molecule?
Answer: 0.9 (0.2)

Question: And the “smell/taste-family symptoms, Fitzmaurice mixed effects model, Effect” value ([2]; Day 12)?
Answer: 0.2 (0.3)

Question: What about the “smell/taste-family symptoms … Camostat” value ([2]; Day 13) of the same molecule?
Answer: 0.7 (0.3)

Question: And the “smell/taste-family symptoms, Fitzmaurice mixed effects model, Effect” value ([2]; Day 13)?
Answer: 0.4 (0.3)

Question: What about the “smell/taste-family symptoms … Camostat” value ([2]; Day 14) of the same molecule?
Answer: 0.8 (0.3)

Question: And the “smell/taste-family symptoms, Fitzmaurice mixed effects model, Effect” value ([2]; Day 14)?
Answer: 0.4 (0.3)

Question: And the adverse effects [3]?
Answer: adverse effects were not observed

Question: And the “effect on clinical severity (e.g. escalation to ICU admission)” value [3]?
Answer: did not have an observable effect

Question: And the “throat-family symptom score, Fitzmaurice model, Camostat” value ([4]; day 0)?
Answer: 2.3 (0.3)

Question: What about the “throat-family symptom score, Fitzmaurice model, Camostat” value ([4]; day 1) of the same molecule?
Answer: 2 (0.3)

Question: What about the “throat-family symptom score, Fitzmaurice model, Effect (placebo vs camostat)” value ([4]; day 1) of the same molecule?
Answer: −0.7 (0.4)

Question: And the “throat-family symptom score, Fitzmaurice model, Camostat” value ([4]; day 2)?
Answer: 1.7 (0.4)

Question: And the “throat-family symptom score, Fitzmaurice model, Effect (placebo vs camostat)” value ([4]; day 2)?
Answer: −0.8 (0.4)

Question: What about the “throat-family symptom score, Fitzmaurice model, Camostat” value ([4]; day 3) of the same molecule?
Answer: 1.6 (0.3)

Question: What about the “throat-family symptom score, Fitzmaurice model, Effect (placebo vs camostat)” value ([4]; day 3) of the same molecule?
Answer: −0.7 (0.4)

Question: What about the “throat-family symptom score, Fitzmaurice model, Camostat” value ([4]; day 4) of the same molecule?
Answer: 1.7 (0.3)

Question: What about the “throat-family symptom score, Fitzmaurice model, Effect (placebo vs camostat)” value ([4]; day 4) of the same molecule?
Answer: −0.9 (0.4)

Question: And the “throat-family symptom score, Fitzmaurice model, Camostat” value ([4]; day 5)?
Answer: 1.1 (0.3)

Question: And the “throat-family symptom score, Fitzmaurice model, Effect (placebo vs camostat)” value ([4]; day 5)?
Answer: −0.2 (0.4)

Question: And the “throat-family symptom score, Fitzmaurice model, Camostat” value ([4]; day 6)?
Answer: 0.9 (0.4)

Question: What about the “throat-family symptom score, Fitzmaurice model, Effect (placebo vs camostat)” value ([4]; day 6) of the same molecule?
Answer: −0.1 (0.4)

Question: What about the “throat-family symptom score, Fitzmaurice model, Camostat” value ([4]; day 7) of the same molecule?
Answer: 0.7 (0.4)
